Our source for the Kd and stoichiometry N values is PMC10076258, “New carbohydrate binding domains identified by phage display based functional metagenomic screens of human gut microbiota” (Communications Biology, 2023).

One experiment has as its target T1, MU1 (unidentified, UniProt Z9NE32H8P7).
T1 construct: metagenomic phage display insert in pET-28a(+) (NdeI/XhoI; forward primer in the T7 vector upstream of the insert), N-terminal His6 kept, E. coli BL21(DE3); monomer, ~39 kDa by SEC; GenBank entry within MN313892-MN313895, ON711254-ON711279, not assigned in text
T1 sequence (Z9NE32H8P7 1-238): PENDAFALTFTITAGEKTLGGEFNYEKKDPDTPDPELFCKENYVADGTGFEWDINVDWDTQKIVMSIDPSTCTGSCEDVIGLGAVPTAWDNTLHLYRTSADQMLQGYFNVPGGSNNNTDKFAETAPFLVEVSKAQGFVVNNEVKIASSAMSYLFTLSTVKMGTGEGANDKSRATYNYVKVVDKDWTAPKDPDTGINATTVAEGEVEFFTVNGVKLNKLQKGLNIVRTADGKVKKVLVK
Description: isothermal titration calorimetry. It is filed as binding, Homo sapiens. Conditions: 20 mM HEPES, 150 mM NaCl, pH 7.5; sequential two-sites model, stronger site. For orientation: In ITC the heat of successive injections is recorded.

A further experiment has as its target T2, MN3 (unidentified, UniProt Z9ZPU1GRL3).
T2 construct: metagenomic phage display insert in pET-28a(+) (EcoRI/HindIII), N- and C-terminal His6 kept, E. coli BL21(DE3); monomer (~33 kDa) and dimer (~77 kDa); GenBank entry within MN313892-MN313895, ON711254-ON711279, not assigned in text
T2 sequence (Z9ZPU1GRL3 1-298): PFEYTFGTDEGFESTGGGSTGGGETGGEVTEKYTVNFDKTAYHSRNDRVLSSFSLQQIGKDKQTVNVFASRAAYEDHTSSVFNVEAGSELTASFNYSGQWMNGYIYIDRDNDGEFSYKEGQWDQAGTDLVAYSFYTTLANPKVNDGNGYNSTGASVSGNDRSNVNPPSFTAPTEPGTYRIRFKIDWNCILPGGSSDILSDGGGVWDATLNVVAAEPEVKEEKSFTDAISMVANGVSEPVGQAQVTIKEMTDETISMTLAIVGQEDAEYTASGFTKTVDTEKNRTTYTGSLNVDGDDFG
Description: isothermal titration calorimetry. It is filed as binding, Homo sapiens. Conditions: 20 mM HEPES, 150 mM NaCl, pH 7.5; sequential two-sites model, stronger site.

For experiment [1], the target named is MN3 (human fecal metagenome (organism not identified)). Description: SEC; HiPrep 26/60 HR Sephacryl S-200, 150 mM NaCl, 20 mM Tris pH 7.5, mostly 1.0 ml/min.
Another experiment addresses T3, Fetuin (UniProt P12763 19-359, sialylated).
T3 construct: fetuin, a glycoprotein used as a glycan ligand in calorimetry; also called sialylated fetuin
T3 sequence (looked up): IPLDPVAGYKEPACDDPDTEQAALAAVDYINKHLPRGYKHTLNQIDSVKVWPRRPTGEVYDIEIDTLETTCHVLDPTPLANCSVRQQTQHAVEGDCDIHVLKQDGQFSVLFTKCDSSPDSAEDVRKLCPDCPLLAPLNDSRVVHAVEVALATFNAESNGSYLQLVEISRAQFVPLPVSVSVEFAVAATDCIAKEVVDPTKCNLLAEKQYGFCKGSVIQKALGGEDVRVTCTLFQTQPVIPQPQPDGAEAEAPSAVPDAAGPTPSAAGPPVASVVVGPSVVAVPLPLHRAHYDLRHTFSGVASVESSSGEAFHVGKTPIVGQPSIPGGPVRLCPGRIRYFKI
Description: ITC; VP-ITC; protein in the sample cell, ligand titrated (20 or 35 injections at intervals of 180 s); buffer mostly 20 mM HEPES, 150 mM NaCl, pH 7.5; single run. Conditions: both partners purified.

Broadly, the Kd is a measure of binding affinity in units of concentration. A higher Kd goes with weaker binding. The term stoichiometry N denotes the number of molecules, sites or subunits per partner or assembly.

Turning to `C#CCN(C(C)=O)[C@@H]1O[C@H](CO)[C@@H](O[C@@H]2O[C@H](CO)[C@H](O)[C@H](O[C@@H]3O[C@H](CO)[C@@H](O[C@@H]4O[C@H](CO)[C@H](O)[C@H](O)[C@H]4O[C@@H]4O[C@@H](C)[C@@H](O)[C@@H](O)[C@@H]4O)[C@H](O)[C@H]3NC(C)=O)[C@H]2O)[C@H](O)[C@H]1O` [H antigen type-2 pentaose], the figures for the dissociation constant (Kd) on MU1 and at MN3 were 20.8 µM and 36.8 µM, respectively.

B1: MN3 (domain or fragment)
chain: T2 sequence (Z9ZPU1GRL3 1-298)
modifications: not checked
Take B1: the stoichiometry N in experiment [1] came to 2.

B2: MU3 (domain or fragment)
chain: QTPKDVTVVEKYQADGTGFSHTINVDWDKQKIVASIDFSNGGDDKDILAMTTGDSFTAFQTSTYRTMHWYCNQTAKQISGFFAKSGAGNNNTGRIDVADCLAKFEISKAEGLKVNGVVKMTPDALEELLTGDPIIIGSGESPKFSNAFYNYIKVVSLDWKETTEPEVTVKDEKTFNEALYMQDQKVADATVVVKG
Turning to B2, the Kd with Fetuin was found to be 239 µM.
